Reference: patent publication US20080119542A1, “METHODS OF USING ARTEMISININ-LIKE COMPOUNDS TO PREVENT OR DELAY THE APPEARANCE OF CANCER” (UNIVERSITY OF WASHINGTON, priority 2002, published 2008)

Tests used:
mammary tumors [1] = assay: Tumor development in DMBA-treated rats given weekly oral intubations of artemisinin; type: in vivo, Female Sprague-Dawley rats; conditions: for Percentage of Animals with Tumors: artemisinin 10 mg/kg weekly oral intubation
Procedure: This Example describes a representative method for preventing or slowing the development of cancer in rats exposed to a carcinogen by administering artemisinin by weekly oral intubations.
Materials and Methods: Female Sprague-Dawley rats were administered a single intragastric dose of the carcinogen 7,12-dimethylbenz[a]anthracene (DMBA; Sigma Chemicals, St Louis, Mo.; 50 mg/kg body weight) suspended in olive oil (Sigma Chemicals, St Louis, Mo.; 25 mg/ml). Animals were randomly assigned to two treatment groups to receive either weekly oral intubations of artemisinin (Holley Pharmaceuticals, Fullerton, Calif.; 10 mg/kg at 10 mg/ml of olive oil) or olive oil (control). Artemisinin treatment began a week after DMBA administration. Animals were palpated for the presence of mammary tumors once weekly. The time and site of detection and size were recorded for each tumor in an animal.

mammary tumors [2] = assay: Tumor development in DMBA-treated rats given artemisinin mixed in food; type: in vivo, Female rats; conditions: artemisinin 0.05% in food, approximately 10 mg/kg/day
From the text: This Example describes a representative method for preventing or slowing the development of cancer in rats exposed to a carcinogen by providing artemisinin mixed in food.
Materials and Methods: Female rats were similarly treated with the carcinogen DMBA, as described in EXAMPLE 1. The rats were randomly assigned to two treatment groups. Artemisinin (0.05%) was mixed in the food of one group of animals starting the day immediately after DMBA treatment. Daily intake of artemisinin, based on the amount of food eaten each day, was estimated to be approximately 10 mg/kg/day. The other group of animals (controls) was given regular rat food.

[3] = cancer patient; oral 50 mg per day, intramuscular 60 mg/day, over 9 months; cited from earlier work

SMILES: C[C@@H]1CC[C@H]2[C@@H](C)C(=O)O[C@@H]3O[C@@]4(C)CC[C@@H]1[C@]32OO4 [Artemisinin, artemisinin]
- Percentage of Animals with Tumors (mammary tumors [1]; week 6 after DMBA): 0%
- Percentage of Animals with Tumors (mammary tumors [1]; week 6 after DMBA, listed as artemisinin): none
- Percentage of Animals with Tumors (mammary tumors [1]; week 7 after DMBA): 9%
- Percentage of Animals with Tumors (mammary tumors [1]; week 9 after DMBA): 9%
- Percentage of Animals with Tumors (mammary tumors [1]; week 10 after DMBA): 9%
- Percentage of Animals with Tumors (mammary tumors [1]; week 11 after DMBA): 9%
- Percentage of Animals with Tumors (mammary tumors [1]; week 12 after DMBA): 27%
- Percentage of Animals with Tumors (mammary tumors [1]; week 13 after DMBA): 45%
- Percentage of Animals with Tumors (mammary tumors [1]; week 16 after DMBA): 45%
- Percentage of Animals with Tumors (mammary tumors [1]; week 17 after DMBA): 45%
- Percentage of Animals with Tumors (mammary tumors [1]; week 20 after DMBA): 54%
- Percentage of Animals with Tumors (mammary tumors [1]; week 29 after DMBA): 64%
- Percentage of Animals with Tumors (mammary tumors [1]; week 31 after DMBA): 64%
- Percentage of Animals with Tumors (mammary tumors [1]; week 38 after DMBA): 64%
- Appearance of tumors in carcinogen-treated animals (mammary tumors [1]; weekly artemisinin treatment vs olive oil controls): delayed the appearance of tumors
- Percentage of Animals with Tumors (mammary tumors [2]; week 6 after DMBA): 0%
- Percentage of Animals with Tumors (mammary tumors [2]; week 7 after DMBA): 0%
- Percentage of Animals with Tumors (mammary tumors [2]; week 8 after DMBA): 0%
- Percentage of Animals with Tumors (mammary tumors [2]; week 9 after DMBA): 0%
- Percentage of Animals with Tumors (mammary tumors [2]; week 10 after DMBA): 0%
- Percentage of Animals with Tumors (mammary tumors [2]; week 10 after DMBA, listed as artemisinin): none

SMILES: C[C@H]1[C@H](OC(=O)CCC(=O)O)O[C@@H]2O[C@@]3(C)CC[C@H]4[C@H](C)CC[C@@H]1[C@@]24OO3 [artesunate]
- Adverse side effects [3]: No apparent adverse side effects
